Data on eight molecules can be found in publication PMC6983991, “Toxicity and Anti-promastigote Activity of Benzoxazinoid Analogs Against Leishmania (Viannia) braziliensis and Leishmania (Leishmania) infantum” (Advanced Pharmaceutical Bulletin, 2019).

One series is described as follows: Cytotoxicity, MTT assay. Format: cell-based. To be noted: hamster spleen cells, 48 h exposure. As for the experimental part:
(§1) Hamster spleen cells were used to test cytotoxicity. The cells were kindly provided by Dr. Rosy Iara Maciel de Azambuja Ribeiro from of Laboratory of Experimental Pathology/UFSJ. The cells were cultivated in saline solution (NaCl 0.9%; Synth, Brazil) and maintained at 37°C in an incubator with an atmosphere containing 5% CO2 (Thermo Fisher Scientific, Waltham, USA).
(§2) Cytotoxic concentration determinations for 50% of the cells in culture (CC50) were evaluated by using the colorimetric 3-(4,5-dimethylthiazol-2-yl)-2,5-diphenyltetrazolium bromide (MTT) method, following protocols outlined in a previous study.[19] Briefly, spleen cells were exposed for 48h to several concentrations of compounds (3, 6.25, 12.5, 25, 50, 100, 200, 400 and 800 µg/mL) and, afterward, the MTT assay was used to quantify the cell viability as was done using the anti-promastigote assay. Finally, CC50 values were calculated by linear regression analysis of absorbance values obtained previously.[20]
(§3) The selectivity of Bex analogs and antileishmanial agents was determined to evaluate the safety of compounds. Thus, the selectivity index (SI) was calculated through the ratio between the CC50 of compounds against the hamster spleen cells and the geometric mean (GM) of IC50 values calculated for L. (V.) braziliensis and L. (L.) infantum.[21] In the case where CC50 was higher than the highest concentration tested of the compound, to calculate the SI, the value used was 400. The larger SI was indicative of a safer molecule.
Background: Tetrazolium dyes change colour on reduction, which living cells bring about.

Series [1] deals with Leishmania (L.) infantum (MHOM/BR/74/PP75) promastigotes. The experiment in a line: Anti-promastigote activity, MTT colorimetric assay. Format: cell-based. As for the experimental part: (§4) Promastigotes of Leishmania (V.) braziliensis (MHOM/BR/75/M2903) and Leishmania (L.) infantum (MHOM/BR/74/PP75) were grown in a biphasic medium. The solid phase was composed of Nicolle–Novy–MacNeals (NNN) medium with 15% defibrillated rabbit blood. Already in the liquid phase, we employed Roswell Park Memorial Institute (RPMI)-1640 (Sigma-Aldrich, St. Louis, USA) or Liver Infusion Tryptose (LIT) medium with 15% fetal bovine serum (Gibco – Thermo Fisher Scientific, Waltham USA), both supplemented with 1% of penicillin-streptomycin antibiotic solutions (10.000 U/mL of penicillin and 10.000 μg/mL of streptomycin; Gibco – Thermo Fisher Scientific, Waltham, USA). Cultures were maintained in an incubator at 25°C until parasites reached logarithmic phase (4 days). Next, the cultures were centrifuged and the pellet was suspended in RPMI-1640 or LIT for counting promastigotes using a Neubauer hemocytometer under an optical microscope (Axiostar Plus Carl Zeiss, Jena, Germany) at 400x magnification. Subsequently, parasites were diluted in RPMI-1640 or LIT medium at a final concentration of 1 x 10^6parasites/mL for use in antileishmanial assays.
(§5) The 50% inhibitory concentration (IC50) against L. (V.) braziliensis and L. (L.) infantum was evaluated by determination of the parasite viability using the colorimetric 3-(4,5-dimethylthiazol-2-yl)-2,5-diphenyltetrazolium bromide (MTT) method.[19] Initially, 100 μL of the promastigote suspension prepared in RPMI-1640 or LIT medium (1 × 10^6cells/mL) was added in each well of the 96-well microplate. Parasites were then treated with two-fold serial dilutions (from 3.12 to 400 µg/mL) of Bex-derived analogs prepared in 10% dimethyl sulfoxide (DMSO) (Sigma-Aldrich, St. Louis, USA) and the microplates were incubated at 25°C for 48 h. Next, 20 μL of MTT solution at 5 mg/mL (Sigma-Aldrich, St. Louis, USA) was added to the parasite cultures and the plates were covered with laminated paper and incubated at 37°C for 4 h. Finally, the plates were centrifuged at 1500 rpm for 15 min at 4°C (Heraeus-Megafuge 11R Centrifuge - Thermo Fisher Scientific, Waltham USA) and the formazan crystals formed were dissolved by the addition of 200 μL 10% DMSO. After further incubation for 5 min at room temperature, absorbance at 570 nm of samples measured using a microplate reader (Metller Toledo, Brazil). Meglumine antimoniate (Glucantime®Sanofi-aventis, France) and amphotericin B (Eurofarma, Brazil) were included as positive controls, and 10% DMSO solution was used as a solvent control. Samples containing RPM1-1640 or LIT only were used to control the sterility of media and samples containing inoculum and medium, but not compounds, were employed as growth controls.

In series [2] the test system is Leishmania (V.) braziliensis (MHOM/BR/75/M2903) promastigotes. The experiment in a line: Anti-promastigote activity, MTT colorimetric assay. Format: cell-based. The protocol:
as §4, §5

A further series has as its system Pseudomonas aeruginosa. Also on record: method as in PMID 26166773. To be noted: disc diffusion, 2 mg/disk; cited from earlier work.
Series [3] concerns E. coli extended-spectrum β-lactamases produced. On the set-up: method as in PMID 26166773. To be noted: disc diffusion, 2 mg/disk; cited from earlier work.
Another series relates to Enterococcus faecalis. On the set-up: method as in PMID 26166773. Particulars: disc diffusion, 2 mg/disk; cited from earlier work. On the technique in general: A growth-free zone around the sample is the usual read-out of agar diffusion tests.
Another series concerns Klebsiella pneumoniae. Also on record: method as in PMID 26166773. Particulars: disc diffusion, 2 mg/disk; cited from earlier work.
Series [4] concerns S. aureus methicillin-resistant. Also on record: method as in PMID 26166773. To be noted: disc diffusion, 2 mg/disk; cited from earlier work.
Another series deals with Bacillus subtilis. Also on record: method as in PMID 26166773. Particulars: disc diffusion, 2 mg/disk; cited from earlier work.
The test system of another series is Streptococcus mutans. On the set-up: method as in PMID 16042337. To be noted: microdilution broth assays; cited from earlier work.
The test system of a further series is Escherichia coli. Also on record: method as in PMID 16042337. Particulars: microdilution broth assays; cited from earlier work.
The next series has as its system Staphylococcus aureus. On the set-up: method as in PMID 16042337. To be noted: microdilution broth assays; cited from earlier work. For orientation: Dilution methods test growth across graded concentrations, often in twofold steps.
Series [5] deals with rat mast cells stimulated with concanavalin A and sensitized with immunoglobulin E. On the set-up: method as in PMID 2453615. To be noted: cited from earlier work.
The subject of a further series is Hamster spleen cells. The experiment in a line: Cytotoxicity, MTT assay. Format: cell-based. To be noted: 48 h exposure. As for the experimental part: as §1, §2, §3
Setting [6] is: geometric mean of IC50 in LIT and RPMI-1640, read-out: GM (geometric mean of IC50 values) L. infantum.
Where [7] appears, read: promastigotes, LIT medium, 48 h, 25°C, MTT, read-out: IC50 L. infantum LIT.
Where [8] appears, read: promastigotes, RPMI-1640 medium, 48 h, 25°C, MTT, read-out: IC50 L. infantum RPMI-1640.
The mark [9] stands for this setting: geometric mean of IC50 in LIT and RPMI-1640, read-out: GM (geometric mean of IC50 values) L. braziliensis.
[10] abbreviates: promastigotes, LIT medium, 48 h, 25°C, MTT, read-out: IC50 L. braziliensis LIT.
Where [11] appears, read: promastigotes, RPMI-1640 medium, 48 h, 25°C, MTT, read-out: IC50 L. braziliensis RPMI-1640.
[12] abbreviates: geometric mean of IC50 in LIT and RPMI-1640.
Setting [13] is: promastigotes, LIT medium, 48 h, 25°C, MTT.
[14] abbreviates: promastigotes, RPMI-1640 medium, 48 h, 25°C, MTT.

In brackets after ≈: the same amount, converted by molar mass. Read-outs that look alike come from different tables or passages of the source.

The term CC50 denotes the concentration giving 50% cytotoxicity. Read a low CC50 as harm at low concentration. Usually IC50 stands for the concentration at which inhibition is half-maximal.

In “Cytotoxicity, MTT assay”, `CC1Oc2ccccc2N(O)C1=O` (stereo not shown) [Bex2] returned a CC50 at 48 h of 274.3 ± 1.87 µg/mL (≈ 1530 µM). Besides, the IC50 in series [1] (setting [6]) was determined as 108 µg/mL (≈ 605 µM); in series [1] (setting [7]), 106 ± 5.61 µg/mL (≈ 592 µM); in series [1] (setting [8]), 111 ± 5.69 µg/mL (≈ 620 µM); in [2] (setting [9]) it was 106 µg/mL (≈ 591 µM); in series [2] (setting [10]) it was 103 ± 4.36 µg/mL (≈ 575 µM); in [2] (setting [11]) it was 109 ± 4.44 µg/mL (≈ 608 µM).
`COc1ccc2c(c1)OC(O)C(=O)N2O` (stereo not shown) [DIMBOA, 2,4-dihydroxy-7-methoxy-1,4-benzoxazin-3-one]: the Antibacterial activity entry (in the series on Pseudomonas aeruginosa; in [3]; with Enterococcus faecalis; in the series with Klebsiella pneumoniae; in [4]; in the series on Bacillus subtilis) was “active” each time.
With `C[C@@H]1[C@H](O)[C@@H](C)/C=C/C=C/C=C/C=C/C=C/C=C/C=C/[C@H](O[C@@H]2O[C@H](C)[C@@H](O)[C@H](N)[C@@H]2O)C[C@@H]2O[C@](O)(C[C@@H](O)C[C@@H](O)[C@H](O)CC[C@@H](O)C[C@@H](O)CC(=O)O[C@H]1C)C[C@H](O)[C@H]2C(=O)O` [ANFO, Amphotericin B, reference compound], the midpoint of cytotoxicity in the series “Cytotoxicity, MTT assay”, the CC50 at 48 h, lay at 89.3 ± 2.24 µg/mL (≈ 96.7 µM). Further, the 50% inhibitory concentration (IC50) in [1] (setting [6]) was found to be 41.5 µg/mL (≈ 45 µM); in [1] (setting [7]), 41.6 ± 4.27 µg/mL (≈ 45.1 µM); in series [1] (setting [8]) it was 41.5 ± 0.99 µg/mL (≈ 44.9 µM); in series [2] (setting [9]), 33.4 µg/mL (≈ 36.1 µM); in [2] (setting [10]), 33.3 ± 3.66 µg/mL (≈ 36 µM); in series [2] (setting [11]), 33.4 ± 3.01 µg/mL (≈ 36.1 µM).
For `CCCCC1Oc2cccnc2N(O)C1=O` (stereo not shown) [Pyr5], the concentration for half-maximal inhibition (IC50) in series [1] (setting [7]) is 135 ± 4.13 µg/mL (≈ 607 µM); in series [1] (setting [8]), 143 ± 4.25 µg/mL (≈ 643 µM); in series [2] (setting [10]) it was 142 ± 3.67 µg/mL (≈ 639 µM); in [2] (setting [11]), 154 ± 3.85 µg/mL (≈ 693 µM).
Regarding `O=C1Nc2ccccc2OC1O` (stereo not shown) [HBOA, 2-hydroxy-1,4-benzoxazin-3-one], the “Concentration exhibiting antibacterial effects” value with Streptococcus mutans is 500 µg/mL; in the series on Escherichia coli, 1,000 μg/mL; with Staphylococcus aureus, 500 µg/mL. Moreover, the “Effect on levels of histamine released from rat mast cells” value in [5] is listed as “able to reduce levels of histamine”.
In the case of `CCC1Oc2cccnc2N(O)C1=O` (stereo not shown) [Pyr3], the IC50 was 149 ± 6.35 µg/mL (≈ 767 µM) in series [1] (setting [7]), 160 ± 6.62 µg/mL (≈ 824 µM) in [1] (setting [8]), 141 ± 5.94 µg/mL (≈ 726 µM) in series [2] (setting [10]) and 152 ± 6.17 µg/mL (≈ 783 µM) in series [2] (setting [11]).
Consider `CCCC1Oc2cccnc2N(O)C1=O` (stereo not shown) [Pyr4], for which the CC50 at 48 h in the series “Cytotoxicity, MTT assay” was 202 ± 2.11 µg/mL (≈ 969 µM). The IC50 was 93 µg/mL (≈ 447 µM) in series [1] (setting [6]); 91 ± 6 µg/mL (≈ 437 µM) in series [1] (setting [7]); 95 ± 6.05 µg/mL (≈ 456 µM) in series [1] (setting [8]); 100 µg/mL (≈ 483 µM) in series [2] (setting [9]); 98 ± 5.94 µg/mL (≈ 471 µM) in series [2] (setting [10]); 103 ± 5.99 µg/mL (≈ 495 µM) in [2] (setting [11]).
The molecule “Meglumine antimoniate [reference compound]” gave a 50% cytotoxic concentration (CC50) in the series on Hamster spleen cells greater than 400 µg/mL. For the same molecule, the “GM (geometric mean of IC50 values) L. infantum” value in series [1] (setting [12]) came to 99.47 µg/mL. Moreover, the “IC50 L. infantum LIT” value in [1] (setting [13]) came to 97 ± 3.14 µg/mL. Moreover, in series [1] (setting [14]), the “IC50 L. infantum RPMI-1640” value is 102 ± 3.54 µg/mL. In addition, the “GM (geometric mean of IC50 values) L. braziliensis” value in [2] (setting [12]) amounted to 97.5 µg/mL. Further, in series [2] (setting [13]), the “IC50 L. braziliensis LIT” value is 97 ± 4.34 µg/mL. In addition, the “IC50 L. braziliensis RPMI-1640” value in series [2] (setting [14]) was 98 ± 4.45 µg/mL.
